US20010008891A1, “PHARMACEUTICAL COMPOSITIONS COMPRISING A XANTHINE AND A CATECHIN” (priority 1998, published 2001)

System: human platelet rich plasma
Experiment: ADP induced platelet aggregation test in human platelet rich plasma
Type: cell-based
Method: The antiplatelet aggregatory activity was measured using human platelet rich plasma as described below, and in Subbiah et al. Brazilian Journal of Medical and Biological Research 1988; 21: 535-538.
Platelet-rich plasma (PRP) was obtained by centrifuging blood collected in 3.8% trisodium citrate (9:1, v/v) from human volunteers or from the blood bank for 15 minutes at 700 rpm. Remaining blood was centrifuged at 2500 rpm for 25 minutes to obtain platelet-poor plasma (PPP). The platelets were quantified with an electronic counter (Coulter Electronics, Inc., Hialeah, Fla.). The platelet count was adjusted to 300,000-350,000/mm^3 with PPP, and 0.45 ml used in each test of aggregation.
ADP (Sigma Chemical Co. St. Louis, Mo.) (0.1 mg/ml), and arachidonic acid (NuCheck Pre, Elysian, Minn.) (1.0 mg/ml in 20 mM Na2CO3) were used as aggregatory agents. Samples were warmed to 37° C. with stirring for approximately two minutes prior to the addition of 50 μl of aggregating agents. Guarana (or its fractions) or caffeine (alone or in combination with catechins) were added before the addition of ADP or arachidonic acid. The change in percentage light transmission was recorded with a dual aggregometer (Chrono-Log Co, Havertown, Pa.) after addition of aggregation agents.

SMILES: Cn1c(=O)c2c(ncn2C)n(C)c1=O [caffeine]
- platelet aggregation inhibitory activity (in words): only weakly active
